Test results taken from ChEMBL document CHEMBL4334480, “Anti-inflammatory Ellagitannins from Cleidion brevipetiolatum for the Treatment of Rheumatoid Arthritis” (J Nat Prod, 2019).
Active and inactive are the calls of the source. The calls are words filed in the database; no cut-off is given here.

Assays:
RAW264.7 [1] = assay: Anti-inflammatory activity in mouse RAW264.7 cells assessed as inhibition of LPS-induced nitric oxide production preincubated for 2 hrs followed by LPS stimulation and measured after 24 hrs by Griess assay; format: functional, cell-based
RAW264.7 [2] = assay: Cytotoxicity against mouse RAW264.7 cells after 24 hrs by MTT assay; format: cell-based; settings: raw264.7, 24 h
Mus musculus [3] = assay: Antiinflammatory activity against carrageenan-induced paw oedema in ICR mouse assessed as inhibition of paw edema at 20 mg/kg, po administered 30 mins prior to carrageenan challenge measured at 2 hrs post carrageenan challenge relative to control; format: functional
Mus musculus [4] = assay: Antiinflammatory activity against carrageenan-induced paw oedema in ICR mouse assessed as inhibition of paw edema at 20 mg/kg, po administered 30 mins prior to carrageenan challenge after 5 hrs post carrageenan challenge; format: functional, organism-based
Mus musculus [5] = assay: Antiinflammatory activity against carrageenan-induced paw oedema in ICR mouse assessed as reduction in NO level in serum at 20 mg/kg, po administered 30 mins prior to carrageenan challenge after 5 hrs post carrageenan; format: functional, organism-based
[6] = target: Transcription factor p65 (Mus musculus) (UniProt Q04207); assay: Inhibition of LPS-induced NFkappaB p65 nuclear translocation in mouse RAW264.7 cells at 5 to 50 uM preincubated for 2 hrs followed by LPS-stimulation after 22 hrs by Western blot analysis; format: cell-based
Chain of Transcription factor p65 (Mus musculus) (Q04207 whole entry): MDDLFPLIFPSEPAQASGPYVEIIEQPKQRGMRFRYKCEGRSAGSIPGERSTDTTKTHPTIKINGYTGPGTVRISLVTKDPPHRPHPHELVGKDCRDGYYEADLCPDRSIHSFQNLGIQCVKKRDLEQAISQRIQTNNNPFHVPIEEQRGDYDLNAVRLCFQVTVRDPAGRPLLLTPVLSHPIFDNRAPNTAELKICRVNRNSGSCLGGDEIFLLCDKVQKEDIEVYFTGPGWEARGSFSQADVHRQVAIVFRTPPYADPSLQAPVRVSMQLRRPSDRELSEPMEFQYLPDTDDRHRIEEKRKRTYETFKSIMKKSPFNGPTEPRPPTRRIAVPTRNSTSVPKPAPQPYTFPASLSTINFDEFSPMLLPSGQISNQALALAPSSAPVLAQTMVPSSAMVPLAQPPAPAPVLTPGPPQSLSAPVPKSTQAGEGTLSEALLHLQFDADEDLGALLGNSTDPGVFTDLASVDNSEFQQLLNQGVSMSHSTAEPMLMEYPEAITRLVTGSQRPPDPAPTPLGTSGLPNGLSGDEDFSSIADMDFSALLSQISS

RAW264.7 [7] = assay: Antiinflammatory activity against mouse RAW264.7 cells assessed as reduction in LPS-induced Cox2 protein expression compound preincubated for 2 hrs followed by LPS stimulation after 22 hrs by Western blot analysis; format: functional, cell-based
[8] = target: T1, NF-kappa-B inhibitor alpha (Mus musculus) (UniProt Q9Z1E3); assay: Inhibition of LPS-induced IKBalpha phosphorylation mouse RAW264.7 cells at 5 to 50 uM preincubated for 2 hrs followed by LPS-stimulation after 22 hrs by Western blot analysis; format: cell-based
T1 sequence (whole entry): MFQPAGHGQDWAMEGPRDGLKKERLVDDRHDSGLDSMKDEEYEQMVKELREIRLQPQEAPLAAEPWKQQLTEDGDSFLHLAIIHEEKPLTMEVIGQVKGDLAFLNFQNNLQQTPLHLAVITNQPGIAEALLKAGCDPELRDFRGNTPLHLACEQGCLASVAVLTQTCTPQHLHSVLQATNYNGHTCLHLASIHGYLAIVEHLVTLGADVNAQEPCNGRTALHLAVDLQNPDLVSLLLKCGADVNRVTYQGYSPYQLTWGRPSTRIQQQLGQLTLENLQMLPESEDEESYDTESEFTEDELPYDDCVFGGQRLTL

[9] = Toxicity in DBA/1J mouse assessed as effect on body weight at 50 mg/kg, po; format: organism-based; settings: in vivo
RAW264.7 [10] = assay: Antiinflammatory activity against mouse RAW264.7 cells assessed as reduction in LPS-induced iNOS protein expression compound preincubated for 2 hrs followed by LPS stimulation after 22 hrs by Western blot analysis; format: functional, cell-based
Mus musculus [11] = assay: Antiinflammatory activity against carrageenan-induced paw oedema in ICR mouse assessed as reduction in NO level in serum at 50 mg/kg, po administered 30 mins prior to carrageenan challenge after 5 hrs post carrageenan; format: functional, organism-based
RAW264.7 [12] = assay: Antiinflammatory activity against mouse RAW264.7 cells assessed as effect on LPS-induced TNF-alpha mRNA expression at 5 to 50 uM preincubated for 2 hrs followed by LPS stimulation after 22 hrs by RT-PCR analysis; format: functional, cell-based
[13] = target: MAP kinase p38 (Mus musculus) (UniProt P47811+O08911+Q9WUI1+Q9Z1B7); assay: Inhibition of LPS-induced P38 phosphorylation in mouse RAW264.7 cells at 5 to 50 uM preincubated for 2 hrs followed by LPS-stimulation after 22 hrs by Western blot analysis; format: cell-based
Mus musculus [14] = assay: Antiarthritic activity in collagen-induced rheumatoid arthritis DBA/1J mouse model assessed as reduction in hindlimb swelling at 50 mg/kg, po; format: functional, organism-based
RAW264.7 [15] = assay: Inhibition of LPS-induced ERK phosphorylation in mouse RAW264.7 cells at 5 to 50 uM preincubated for 2 hrs followed by LPS-stimulation after 22 hrs by Western blot analysis; format: cell-based
Mus musculus [16] = assay: Antiarthritic activity in collagen-induced rheumatoid arthritis DBA/1J mouse model assessed as reduction in forelimb swelling at 50 mg/kg, po; format: functional, organism-based
RAW264.7 [17] = assay: Inhibition of LPS-induced JNK phosphorylation in mouse RAW264.7 cells at 5 to 50 uM preincubated for 2 hrs followed by LPS-stimulation after 22 hrs by Western blot analysis; format: cell-based
[18] = Toxicity in DBA/1J mouse assessed as effect on behavioral changes at 50 mg/kg, po; format: organism-based; settings: in vivo
Mus musculus [19] = assay: Antiarthritic activity in collagen-induced rheumatoid arthritis DBA/1J mouse model at 50 mg/kg, po after 22 days; format: functional, organism-based
Mus musculus [20] = assay: Antiinflammatory activity against carrageenan-induced paw edema in ICR mouse assessed as inhibition of paw edema at 50 mg/kg, po administered 30 mins prior to carrageenan challenge measured at 2 hrs post carrageenan challenge relative to control; format: functional
RAW264.7 [21] = assay: Antiinflammatory activity against mouse RAW264.7 cells assessed as reduction in LPS-induced IL-1beta mRNA expression compound preincubated for 2 hrs followed by LPS stimulation after 22 hrs by RT-PCR analysis; format: functional, cell-based
RAW264.7 [22] = assay: Antiinflammatory activity against mouse RAW264.7 cells assessed as reduction in LPS-induced Cox2 mRNA expression compound preincubated for 2 hrs followed by LPS stimulation after 22 hrs by RT-PCR analysis; format: functional, cell-based
Mus musculus [23] = assay: Antiinflammatory activity against carrageenan-induced paw oedema in ICR mouse assessed as inhibition of paw edema at 50 mg/kg, po administered 30 mins prior to carrageenan challenge after 5 hrs post carrageenan challenge; format: functional, organism-based
RAW264.7 [24] = assay: Antiinflammatory activity against mouse RAW264.7 cells assessed as reduction in LPS-induced iNOS mRNA expression compound preincubated for 2 hrs followed by LPS stimulation after 22 hrs by RT-PCR analysis; format: functional, cell-based

Structure (SMILES)	IC50 (RAW264.7 [1])	Activity (RAW264.7 [2])	other results
C/C=C/c1ccc(O[C@@H]2O[C@H](CO)[C@@H](O)[C@H](O)[C@H]2O)c(O)c1	29.2 µM	Non-Toxic	–
C=CCc1ccc(O[C@@H]2O[C@H](CO)[C@H]3OC(=O)c4cc(O)c(O)c(O)c4-c4c(cc(O)c(O)c4O)C(=O)O[C@@H]3[C@H]2O)cc1	4.3 µM	Non-Toxic	–
C=CCc1ccc(O[C@@H]2O[C@H](CO)[C@@H](O)[C@H](O)[C@H]2O)c(O)c1	> 50 µM	Non-Toxic	–
C=CCc1ccc(O[C@@H]2O[C@H](COC(=O)c3cc(O)c(O)c(O)c3)[C@H]3OC(=O)c4cc(O)c(O)c(O)c4-c4c(cc(O)c(O)c4O)C(=O)O[C@@H]3[C@H]2O)c(O)c1	3.9 µM	Non-Toxic	–
COc1ccc2c(c1)c(CC(=O)O)c(C)n2C(=O)c1ccc(Cl)cc1 [INDOMETHACIN]	–	–	inhibition in vivo at 20 mg/kg (Mus musculus [3]): 26.5%; inhibition (Mus musculus [4]): Active; Activity (Mus musculus [5]): Active
C=CCc1ccc(O[C@@H]2O[C@H](CO[C@@H]3O[C@@H](C)[C@@H]4OC(=O)c5cc(O)c(O)c(O)c5-c5c(cc(O)c(O)c5O)C(=O)O[C@H]4[C@H]3O)[C@H]3OC(=O)c4cc(O)c(O)c(O)c4-c4c(cc(O)c(O)c4O)C(=O)O[C@@H]3[C@H]2O)cc1	1.9 µM	Non-Toxic	inhibition [6]: Active; Activity (RAW264.7 [7]): Dose-dependent effect; inhibition [8]: Active; Activity [9]: Non-Toxic; Activity (RAW264.7 [10]): Dose-dependent effect; Activity (Mus musculus [11]): Active; Activity (RAW264.7 [12]): inactive; inhibition [13]: inactive; Activity (Mus musculus [14]): Active; inhibition (RAW264.7 [15]): inactive; Activity (Mus musculus [16]): Active; inhibition (RAW264.7 [17]): inactive; Activity [18]: Non-Toxic; Activity (Mus musculus [19]): Active; inhibition in vivo at 50 mg/kg (Mus musculus [20]): 26.9%; Activity (RAW264.7 [21]): Dose-dependent effect; Activity (RAW264.7 [22]): Dose-dependent effect; inhibition (Mus musculus [23]): Active; Activity (RAW264.7 [24]): Dose-dependent effect
C/C=C/c1ccc(O[C@@H]2O[C@H](CO[C@@H]3O[C@@H](C)[C@@H]4OC(=O)c5cc(O)c(O)c(O)c5-c5c(cc(O)c(O)c5O)C(=O)O[C@H]4[C@H]3O)[C@H]3OC(=O)c4cc(O)c(O)c(O)c4-c4c(cc(O)c(O)c4O)C(=O)O[C@@H]3[C@H]2O)cc1	3.6 µM	Non-Toxic	–
O=c1cc(-c2ccc(O)c(O)c2)oc2cc(O)cc(O)c12 [LUTEOLIN]	5.8 µM	Non-Toxic	–
C/C=C/c1ccc(O[C@@H]2O[C@H](CO)[C@@H](O)[C@H](O)[C@H]2O)cc1	> 50 µM	Non-Toxic	–
C/C=C/c1ccc(O[C@@H]2O[C@H](CO)[C@H]3OC(=O)c4cc(O)c(O)c(O)c4-c4c(cc(O)c(O)c4O)C(=O)O[C@@H]3[C@H]2O)c(O)c1	2.1 µM	Non-Toxic	–
O=c1oc2c(O)c(O)cc3c(=O)oc4c(O)c(O)cc1c4c23 [ELLAGIC ACID]	> 50 µM	Non-Toxic	–
C=CCc1ccc(O[C@@H]2O[C@H](CO)[C@H]3OC(=O)c4cc(O)c(O)c(O)c4-c4c(cc(O)c(O)c4O)C(=O)O[C@@H]3[C@H]2O)c(O)c1	4.1 µM	Non-Toxic	–
C=CCc1ccc(O[C@@H]2O[C@H](CO)[C@@H](O)[C@H](O)[C@H]2O)cc1	> 50 µM	Non-Toxic	–
O=C(O)c1cc(O)c(O)c(O)c1 [GALLIC ACID]	> 50 µM	Non-Toxic	–
C/C=C/c1ccc(O[C@@H]2O[C@H](CO)[C@H]3OC(=O)c4cc(O)c(O)c(O)c4-c4c(cc(O)c(O)c4O)C(=O)O[C@@H]3[C@H]2O)cc1	8.2 µM	Non-Toxic	–
